What was measured:
[1] = biological target: T1, Serine/threonine-protein kinase A-Raf (Homo sapiens, UniProt P10398); test: Inhibition of A-raf (unknown origin)
T1 sequence (P10398 whole entry): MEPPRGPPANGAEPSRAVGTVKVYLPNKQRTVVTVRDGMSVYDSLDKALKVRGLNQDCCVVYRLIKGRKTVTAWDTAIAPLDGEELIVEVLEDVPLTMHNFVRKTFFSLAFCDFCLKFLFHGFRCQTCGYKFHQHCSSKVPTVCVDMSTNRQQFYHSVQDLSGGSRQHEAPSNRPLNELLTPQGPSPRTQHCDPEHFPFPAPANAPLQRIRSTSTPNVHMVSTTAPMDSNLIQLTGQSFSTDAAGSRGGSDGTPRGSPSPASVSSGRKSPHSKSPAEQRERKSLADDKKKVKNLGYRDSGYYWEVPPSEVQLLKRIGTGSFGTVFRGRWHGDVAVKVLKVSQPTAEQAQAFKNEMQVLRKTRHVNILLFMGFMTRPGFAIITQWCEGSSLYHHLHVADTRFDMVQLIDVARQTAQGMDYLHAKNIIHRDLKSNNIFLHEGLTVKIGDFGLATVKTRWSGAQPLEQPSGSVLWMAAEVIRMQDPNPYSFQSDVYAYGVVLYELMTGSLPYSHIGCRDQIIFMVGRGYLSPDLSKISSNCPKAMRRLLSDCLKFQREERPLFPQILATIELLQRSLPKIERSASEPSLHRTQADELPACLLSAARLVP

[2] = biological target: RAF proto-oncogene serine/threonine-protein kinase (Homo sapiens, UniProt P04049); test: Inhibition of human C-raf using biotin-MEKl substrate incubated for 1 hr
[3] = biological target: Serine/threonine-protein kinase B-raf (Homo sapiens, UniProt P15056); test: Inhibition of N-terminal GST-tagged human recombinant B-Raf (416 to end residues) using biotin-MEKl substrate incubated for 1 hr
[4] = biological target: Proto-oncogene tyrosine-protein kinase Src (Homo sapiens, UniProt P12931); test: Inhibition of Src (unknown origin) expressed in Escherichia coli using biotin-(E4Y)3 substrate
[5] = biological target: Vascular endothelial growth factor receptor 2 (Homo sapiens, UniProt P35968); test: Inhibition of KDR (unknown origin)
Sequence of Vascular endothelial growth factor receptor 2 (P35968 whole entry): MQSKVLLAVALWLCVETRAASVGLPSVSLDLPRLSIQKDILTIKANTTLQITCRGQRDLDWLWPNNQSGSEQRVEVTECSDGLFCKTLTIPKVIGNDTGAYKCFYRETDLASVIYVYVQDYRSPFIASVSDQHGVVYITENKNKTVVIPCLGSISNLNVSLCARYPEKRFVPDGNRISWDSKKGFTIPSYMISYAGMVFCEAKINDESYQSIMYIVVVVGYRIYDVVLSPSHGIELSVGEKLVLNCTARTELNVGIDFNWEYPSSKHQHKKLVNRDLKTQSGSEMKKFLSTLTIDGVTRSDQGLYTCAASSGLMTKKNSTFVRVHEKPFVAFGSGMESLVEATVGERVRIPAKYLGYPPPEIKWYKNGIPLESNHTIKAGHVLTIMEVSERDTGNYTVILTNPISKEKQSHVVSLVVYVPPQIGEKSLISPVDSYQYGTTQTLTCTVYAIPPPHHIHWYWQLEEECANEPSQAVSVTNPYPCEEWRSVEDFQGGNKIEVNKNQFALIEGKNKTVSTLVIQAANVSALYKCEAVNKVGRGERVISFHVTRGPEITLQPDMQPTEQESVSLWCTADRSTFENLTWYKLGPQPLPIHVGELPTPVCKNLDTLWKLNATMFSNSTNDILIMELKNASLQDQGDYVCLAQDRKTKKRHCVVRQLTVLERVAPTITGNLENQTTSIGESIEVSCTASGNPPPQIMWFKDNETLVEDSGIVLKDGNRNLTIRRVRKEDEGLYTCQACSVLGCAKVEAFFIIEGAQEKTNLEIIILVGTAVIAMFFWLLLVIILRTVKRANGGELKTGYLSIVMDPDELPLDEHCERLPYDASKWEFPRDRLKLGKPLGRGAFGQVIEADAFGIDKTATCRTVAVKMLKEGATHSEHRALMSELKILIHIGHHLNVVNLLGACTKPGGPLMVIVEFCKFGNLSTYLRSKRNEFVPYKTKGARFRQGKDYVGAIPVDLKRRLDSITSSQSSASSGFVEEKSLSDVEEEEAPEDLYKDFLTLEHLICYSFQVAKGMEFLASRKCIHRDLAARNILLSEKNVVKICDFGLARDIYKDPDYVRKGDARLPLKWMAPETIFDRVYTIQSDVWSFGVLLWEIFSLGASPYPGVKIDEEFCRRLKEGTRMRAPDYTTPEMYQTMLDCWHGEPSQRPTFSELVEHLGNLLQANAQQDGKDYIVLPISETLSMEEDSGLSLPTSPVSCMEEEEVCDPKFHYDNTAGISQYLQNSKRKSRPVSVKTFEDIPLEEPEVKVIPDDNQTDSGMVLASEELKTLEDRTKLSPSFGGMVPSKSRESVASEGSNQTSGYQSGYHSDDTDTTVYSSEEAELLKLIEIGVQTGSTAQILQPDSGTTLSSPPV

Sequence of Serine/threonine-protein kinase B-raf (P15056 whole entry): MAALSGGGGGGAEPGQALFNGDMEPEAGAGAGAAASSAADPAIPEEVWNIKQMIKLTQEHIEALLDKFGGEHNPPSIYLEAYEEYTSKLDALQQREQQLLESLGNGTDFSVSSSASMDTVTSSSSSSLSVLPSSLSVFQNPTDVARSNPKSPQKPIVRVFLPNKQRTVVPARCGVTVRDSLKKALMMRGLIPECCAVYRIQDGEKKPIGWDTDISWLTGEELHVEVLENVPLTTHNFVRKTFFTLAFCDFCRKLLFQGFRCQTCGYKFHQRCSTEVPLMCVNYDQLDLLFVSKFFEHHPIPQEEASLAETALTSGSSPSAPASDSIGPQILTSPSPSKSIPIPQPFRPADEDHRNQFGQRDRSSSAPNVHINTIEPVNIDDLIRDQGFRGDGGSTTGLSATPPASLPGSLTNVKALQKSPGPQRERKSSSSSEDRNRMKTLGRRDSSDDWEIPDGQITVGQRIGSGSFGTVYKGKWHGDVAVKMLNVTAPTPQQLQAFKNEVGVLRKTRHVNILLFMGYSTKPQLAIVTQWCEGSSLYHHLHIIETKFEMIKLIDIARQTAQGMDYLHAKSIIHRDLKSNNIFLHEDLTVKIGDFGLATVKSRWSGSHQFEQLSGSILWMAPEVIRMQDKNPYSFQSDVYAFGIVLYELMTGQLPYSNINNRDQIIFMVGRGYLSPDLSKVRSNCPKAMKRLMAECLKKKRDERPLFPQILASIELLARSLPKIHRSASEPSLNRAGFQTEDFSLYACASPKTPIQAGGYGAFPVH
Sequence of RAF proto-oncogene serine/threonine-protein kinase (P04049 whole entry): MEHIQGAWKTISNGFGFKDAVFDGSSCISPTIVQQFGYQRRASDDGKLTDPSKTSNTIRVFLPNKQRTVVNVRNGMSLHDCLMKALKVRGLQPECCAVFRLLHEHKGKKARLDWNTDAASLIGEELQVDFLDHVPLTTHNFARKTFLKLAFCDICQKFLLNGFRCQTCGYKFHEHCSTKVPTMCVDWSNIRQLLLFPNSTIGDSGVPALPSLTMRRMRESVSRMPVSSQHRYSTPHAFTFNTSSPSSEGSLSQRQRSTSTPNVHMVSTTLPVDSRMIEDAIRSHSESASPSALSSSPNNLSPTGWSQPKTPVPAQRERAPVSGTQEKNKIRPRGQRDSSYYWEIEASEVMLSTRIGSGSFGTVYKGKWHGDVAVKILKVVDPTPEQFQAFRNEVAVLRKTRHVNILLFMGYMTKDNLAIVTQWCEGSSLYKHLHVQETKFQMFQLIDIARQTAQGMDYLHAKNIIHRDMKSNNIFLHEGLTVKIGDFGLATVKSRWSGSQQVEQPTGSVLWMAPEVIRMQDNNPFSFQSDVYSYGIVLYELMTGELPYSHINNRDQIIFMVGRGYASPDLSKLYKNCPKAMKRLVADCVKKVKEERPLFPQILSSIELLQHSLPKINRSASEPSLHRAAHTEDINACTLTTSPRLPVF
Sequence of Proto-oncogene tyrosine-protein kinase Src (P12931 2-536 limits assumed): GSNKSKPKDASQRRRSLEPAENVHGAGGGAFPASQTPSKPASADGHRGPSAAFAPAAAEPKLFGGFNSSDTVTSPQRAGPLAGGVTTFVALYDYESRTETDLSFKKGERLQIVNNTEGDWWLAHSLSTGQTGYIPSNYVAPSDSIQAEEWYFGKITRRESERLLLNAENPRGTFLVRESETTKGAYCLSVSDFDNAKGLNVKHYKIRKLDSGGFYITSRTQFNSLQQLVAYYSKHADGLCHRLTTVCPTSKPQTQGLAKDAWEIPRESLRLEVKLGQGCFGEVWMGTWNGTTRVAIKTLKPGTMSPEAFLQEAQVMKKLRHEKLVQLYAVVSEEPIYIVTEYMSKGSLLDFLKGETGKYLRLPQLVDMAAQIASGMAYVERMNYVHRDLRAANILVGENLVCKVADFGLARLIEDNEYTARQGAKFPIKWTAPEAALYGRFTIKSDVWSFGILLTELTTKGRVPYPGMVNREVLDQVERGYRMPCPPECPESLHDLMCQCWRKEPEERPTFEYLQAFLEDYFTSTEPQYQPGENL

SMILES | IC50 [1] [µM] | IC50 [2] [µM] | IC50 [3] [µM] | IC50 [4] [µM] | IC50 [5] [µM]
CCCS(=O)(=O)Nc1ccc(F)c(C(=O)c2c[nH]c3ncc(Br)nc23)c1F | ≤ 10 | ≤ 10 |  |  | 
CCCS(=O)(=O)Nc1ccc(F)c(C(=O)c2c[nH]c3ncc(-c4cnc(OC)nc4)nc23)c1F | ≤ 10 | ≤ 10 | ≤ 10 |  | 
O=C(c1cccc(NS(=O)(=O)c2ccc(C(F)(F)F)cc2)c1F)c1c[nH]c2nccnc12 | ≤ 10 | ≤ 10 | ≤ 10 |  | 
CCCS(=O)(=O)Nc1ccc(F)c(C(=O)c2c[nH]c3ncc(-c4cnn(C)c4)nc23)c1F |  |  |  | ≤ 10 | ≤ 10
O=C(c1c(F)ccc(NS(=O)(=O)c2ccc(C(F)(F)F)cc2)c1F)c1c[nH]c2nccnc12 | ≤ 10 | ≤ 10 |  |  | 

Next, values leading:

IC50 [1] [µM] | IC50 [2] [µM] | IC50 [3] [µM] | IC50 [4] [µM] | IC50 [5] [µM] | SMILES
≤ 10 | ≤ 10 | ≤ 10 |  |  | CCCS(=O)(=O)Nc1ccc(F)c(C(=O)c2c[nH]c3nccnc23)c1F
 |  |  | ≤ 10 |  | CCCS(=O)(=O)Nc1ccc(F)c(C(=O)c2c[nH]c3ncc(C#N)nc23)c1F

Reference: ChEMBL document CHEMBL3714760, “Substituted pyrrolo[2,3b]pyrazines and methods for treatment of raf protein kinase-mediated indications” (2012)
